Structures are written as SMILES. Structures can show the parent of a compound that is named as a salt.

The first series has as its system rabbits with intact skin. The series can be described thus: Screening of antihistamines for dermal irritation (24/72 hour screen, Draize grading). As to conditions: 24/72 hour dermal irritation screen in rabbits with intact skin; formulation strength as given in the label.
Excerpt: The irritation results are reported as either irritating (+) or non-irritating (-), and the penetration results are reported as either good (+) or poor (-). […] Eight young adult New Zealand white rabbits were assigned to two groups. The rabbits were housed in stainless steel cages and maintained under standard laboratory conditions. Each cage was identified with a color coded label indicating the test substance, rabbit number, sex, and study number. Food and water were supplied ad libitum. On the day of dosing, the back of each rabbit was clipped free of hair. […] To prevent removal, the chambers were covered with an orthopedic stockinette and secured by a canvas coat.
For the compound `CN(C)CCC(c1ccc(Cl)cc1)c1ccccn1` (stereo not shown) [Chlorpheniramine base (patch), Chlorpheniramine], the “Rabbit Dermal Irritation” value is listed as “(+)”.

On to `CN1CCC(=C2c3ccccc3C=Cc3ccccc32)CC1` [Cyprhoheptadine HCl], for which the “Rabbit Dermal Irritation” value is “(+)”. `CN(C)CC[C@@H](c1ccc(Cl)cc1)c1ccccn1` [Dexchlorpheniramine base, Dexchlorpheniramine]: the “Rabbit Dermal Irritation” value is given as “(+)”.

Test system in another series: not given
Assay: not given
As to conditions: pH 7.4.
With `CN1CCC(=C2c3ccccc3CCc3cccnc32)CC1` [Azatadine, 6,11-diydro-11-(1-methyl-4-piperidylidene)-5H-benzo[5,6]cyclohepta[1,2-b]pyridine], the “In Vitro Dermal Penetration” value is reported as “(+)”.

As for `CN(C)CCC(c1ccc(Cl)cc1)c1ccccn1` (stereo not shown) [Chlorpheniramine base (patch), Chlorpheniramine], the “In Vitro Dermal Penetration” value is on record as “(+)”.

A further series deals with rabbits with intact skin.
Assay: not given
The following applies: in vivo.
Turning to `CN(C)CCOC(c1ccc(Cl)cc1)c1ccccn1` (stereo not shown) [Carbinoxamine maleate], the “Rabbit Dermal Irritation” value was “(+)”.

Turning to `CN(C)CC[C@@H](c1ccc(Br)cc1)c1ccccn1` [Dexbrompheniramine (10%), Dexbrompheniramine], the “Rabbit Dermal Irritation” value was “(+)”. For the compound `CC(C1=C(CCN(C)C)Cc2ccccc21)c1ccccn1` (stereo not shown) [Dimethindine maleate], the “Rabbit Dermal Irritation” value is on record as “(+)”. Consider `CN1CCC(OC(c2ccccc2)c2ccccc2)CC1` [Diphenylpyraline HCl], for which the “Rabbit Dermal Irritation” value is listed as “(+)”. Same read-out and setting: the value for `CN(C)CCOC(C)(c1ccccc1)c1ccccn1` (stereo not shown) [Doxylamine succinate] was “(+)”. For the compound `CC(CN1c2ccccc2Sc2ccccc21)N(C)C` (stereo not shown) [Promethazine HCl], the “Rabbit Dermal Irritation” value is reported as “(+)”. For `Cc1ccc(/C(=C\CN2CCCC2)c2ccccn2)cc1` [Triprolidine HCl], the “Rabbit Dermal Irritation” value was “(+)”.

The series is the same for the next values; noted with them: rabbit, in vivo.
For the compound `CN1CCC(=C2c3ccccc3CCc3cccnc32)CC1` [Azatadine, 6,11-diydro-11-(1-methyl-4-piperidylidene)-5H-benzo[5,6]cyclohepta[1,2-b]pyridine], the “dermal irritation and/or sensitization” value is “no dermal irritation and/or sensitization”.

The record behind these values is EP0188538B1, “TRANSDERMAL DELIVERY OF AZATADINE” (priority 1984, dated 1986).
